Assay results as given in US11053204B2, “Pyrimidinyloxy benzene derivatives as herbicides” (FMC Corporation, priority 2015, dated 2021).

Legend:
Assay type in all cases: in vivo
[1] = system: ragweed (common ragweed, Ambrosia elatior); assay: Test A preemergence, visual injury rating; settings: 0 to 100 scale (0 no effect, 100 complete control)
Text: (§1) Seeds of plant species selected from barnyardgrass (Echinochloa crus-galli), kochia (Kochia scoparia), ragweed (common ragweed, Ambrosia elatior), Italian ryegrass (Lolium multiflorum), large (Lg) crabgrass (Digitaria sanguinalis), giant foxtail (Setaria faberii), morningglory (Ipomoea spp.), pigweed (Amaranthus retroflexus), velvetleaf (Abutilon theophrasti), wheat (Triticum aestivum), and corn (Zea mays) were planted into a blend of loam soil and sand and treated preemergence with a directed soil spray using test chemicals formulated in a non-phytotoxic solvent mixture which included a surfactant.
(§2) At the same time, plants selected from these crop and weed species and also blackgrass (Alopecurus myosuroides), and galium (catchweed bedstraw, Galium aparine) were planted in pots containing the same blend of loam soil and sand and treated with postemergence applications of test chemicals formulated in the same manner. Plants ranged in height from 2 to 10 cm and were in the one- to two-leaf stage for the postemergence treatment. Treated plants and untreated controls were maintained in a greenhouse for approximately 10 days, after which time all treated plants were compared to untreated controls and visually evaluated for injury. Plant response ratings, summarized in Table A, are based on a 0 to 100 scale where 0 is no effect and 100 is complete control. A dash (-) response means no test result.

[2] = system: pigweed (Amaranthus retroflexus); assay: Test A preemergence, visual injury rating; settings: 0 to 100 scale (0 no effect, 100 complete control)
Text: as §1, §2

[3] = system: giant foxtail (Setaria faberii); assay: Test A preemergence, visual injury rating; settings: 0 to 100 scale (0 no effect, 100 complete control)
Text: as §1, §2

[4] = system: Italian ryegrass (Lolium multiflorum); assay: Test A preemergence, visual injury rating; settings: 0 to 100 scale (0 no effect, 100 complete control)
Text: as §1, §2

[5] = system: barnyardgrass (Echinochloa crus-galli); assay: Test A preemergence, visual injury rating; settings: 0 to 100 scale (0 no effect, 100 complete control)
Text: as §1, §2

[6] = system: kochia (Kochia scoparia); assay: Test A preemergence, visual injury rating; settings: 0 to 100 scale (0 no effect, 100 complete control)
Text: as §1, §2

[7] = system: ragweed (common ragweed, Ambrosia elatior); assay: Test A postemergence, visual injury rating; settings: 0 is no effect, 100 is complete control
Text: as §1, §2

[8] = system: pigweed (Amaranthus retroflexus); assay: Test A postemergence, visual injury rating; settings: 0 is no effect, 100 is complete control
Text: as §1, §2

[9] = system: corn (Zea mays); assay: Test A postemergence, visual injury rating; settings: 0 is no effect, 100 is complete control
Text: as §1, §2

[10] = system: giant foxtail (Setaria faberii); assay: Test A postemergence, visual injury rating; settings: 0 is no effect, 100 is complete control
Text: as §1, §2

[11] = system: Italian ryegrass (Lolium multiflorum); assay: Test A postemergence, visual injury rating; settings: 0 is no effect, 100 is complete control
Text: as §1, §2

[12] = system: blackgrass (Alopecurus myosuroides); assay: Test A postemergence, visual injury rating; settings: 0 is no effect, 100 is complete control
Text: as §1, §2

[13] = system: barnyardgrass (Echinochloa crus-galli); assay: Test A postemergence, visual injury rating; settings: 0 is no effect, 100 is complete control
Text: as §1, §2

[14] = system: kochia (Kochia scoparia); assay: Test A postemergence, visual injury rating; settings: 0 is no effect, 100 is complete control
Text: as §1, §2

[15] = system: wheat (Triticum aestivum); assay: Test A postemergence, visual injury rating; settings: 0 is no effect, 100 is complete control
Text: as §1, §2

[16] = system: galium (catchweed bedstraw, Galium aparine); assay: Test A postemergence, visual injury rating; settings: 0 is no effect, 100 is complete control
Text: as §1, §2

Row | SMILES | Ragweed plant response rating ([1]; 125 g ai/ha) | Ragweed plant response rating ([1]; 500 g ai/ha) | Pigweed plant response rating ([2]; 125 g ai/ha) | Pigweed plant response rating ([2]; 500 g ai/ha) | Foxtail, Giant plant response rating ([3]; 125 g ai/ha) | Foxtail, Giant plant response rating ([3]; 500 g ai/ha) | Ryegrass, Italian plant response rating ([4]; 125 g ai/ha) | Ryegrass, Italian plant response rating ([4]; 500 g ai/ha) | Barnyardgrass plant response rating ([5]; 125 g ai/ha) | Barnyardgrass plant response rating ([5]; 500 g ai/ha) | Kochia plant response rating ([6]; 125 g ai/ha) | Kochia plant response rating ([6]; 500 g ai/ha) | Ragweed plant response rating (0 to 100 scale) ([7]; 125 g ai/ha) | Ragweed plant response rating (0 to 100 scale) ([7]; 500 g ai/ha) | Pigweed plant response rating (0 to 100 scale) ([8]; 125 g ai/ha) | Pigweed plant response rating (0 to 100 scale) ([8]; 500 g ai/ha) | Corn plant response rating (0 to 100 scale) ([9]; 125 g ai/ha) | Corn plant response rating (0 to 100 scale) ([9]; 500 g ai/ha) | Foxtail, Giant plant response rating (0 to 100 scale) ([10]; 125 g ai/ha) | Foxtail, Giant plant response rating (0 to 100 scale) ([10]; 500 g ai/ha) | other results
1 | N#CCOC(=O)c1c(Br)cccc1Oc1ncc(Cl)cn1 [Compound 40] | 0 | 0 | 40 | 100 | 20 | 100 | 0 | 0 | 0 | 50 | 60 | 90 | 0 | 0 | 70 | 100 | 20 | 20 | 10 | 40 | Ryegrass, Italian plant response rating (0 to 100 scale) ([11]; 125 g ai/ha): 0; Ryegrass, Italian plant response rating (0 to 100 scale) ([11]; 500 g ai/ha): 0; Blackgrass plant response rating (0 to 100 scale) ([12]; 125 g ai/ha): 10; Blackgrass plant response rating (0 to 100 scale) ([12]; 500 g ai/ha): 20; Barnyardgrass plant response rating (0 to 100 scale) ([13]; 125 g ai/ha): 0; Barnyardgrass plant response rating (0 to 100 scale) ([13]; 500 g ai/ha): 20; Kochia plant response rating (0 to 100 scale) ([14]; 125 g ai/ha): 70; Kochia plant response rating (0 to 100 scale) ([14]; 500 g ai/ha): 100; Wheat plant response rating (0 to 100 scale) ([15]; 125 g ai/ha): 0; Wheat plant response rating (0 to 100 scale) ([15]; 500 g ai/ha): 20; Galium plant response rating (0 to 100 scale) ([16]; 125 g ai/ha): 30; Galium plant response rating (0 to 100 scale) ([16]; 500 g ai/ha): 40
2 | O=C(OCCC(F)(F)F)c1c(F)cccc1Oc1ncc(Br)cn1 [Compound 41] | 50 | 80 | 30 | 40 | 0 | 0 | 0 | 0 | 0 | 0 | 30 | 30 | 0 | 10 | 90 | 90 | 0 | 0 | 0 | 0 | Ryegrass, Italian plant response rating (0 to 100 scale) ([11]; 125 g ai/ha): 0; Ryegrass, Italian plant response rating (0 to 100 scale) ([11]; 500 g ai/ha): 0; Blackgrass plant response rating (0 to 100 scale) ([12]; 125 g ai/ha): 0; Blackgrass plant response rating (0 to 100 scale) ([12]; 500 g ai/ha): 0; Barnyardgrass plant response rating (0 to 100 scale) ([13]; 125 g ai/ha): 0; Barnyardgrass plant response rating (0 to 100 scale) ([13]; 500 g ai/ha): 0; Kochia plant response rating (0 to 100 scale) ([14]; 125 g ai/ha): 20; Kochia plant response rating (0 to 100 scale) ([14]; 500 g ai/ha): 60; Wheat plant response rating (0 to 100 scale) ([15]; 125 g ai/ha): 0; Wheat plant response rating (0 to 100 scale) ([15]; 500 g ai/ha): 0; Galium plant response rating (0 to 100 scale) ([16]; 125 g ai/ha): 0; Galium plant response rating (0 to 100 scale) ([16]; 500 g ai/ha): 0
